Experiments:
Experiment in all cases: relative viability (nuclei count vs DMSO), 5 days (fraction); higher = more cells survive
[1] = compound: CN(C)CC1=CC(=CC=C1)N=C(C2=CC=CC=C2)C3=C(NC4=C3C=CC(=C4)C(=O)N(C)C)O + COc1cccc2cc(-c3nc([C@H]4CC[C@H](C(=O)O)CC4)n4ncnc(N)c34)[nH]c12 [OSI-027] (partner 0.5 µM)
Method in brief: (§1)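 For relative viability, nuclei counts in treated wells were divided by those in vehicle wells. Lung cancer cell lines had been pin-tool dosed in 1536-well plates the day after seeding and cultured for 5 days, then fixed and stained in one step (final 0.05% Triton X-100, 1% formaldehyde, 1 ug/ml Hoechst) and imaged at 4×. Doses were one drug alone or a fixed anchor-drug dose plus five library-drug doses (not always all listed) in √10 steps, and values are duplicate-plate medians.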

[2] = compound: CN(C)CC1=CC(=CC=C1)N=C(C2=CC=CC=C2)C3=C(NC4=C3C=CC(=C4)C(=O)N(C)C)O + C[C@]1(O)C[C@@H](c2nc(-c3ccc4ccc(-c5ccccc5)nc4c3)c3c(N)nccn32)C1 [Linsitinib] (partner 1 µM)
Method in brief: as §1

[3] = compound: CN(C)CC1=CC(=CC=C1)N=C(C2=CC=CC=C2)C3=C(NC4=C3C=CC(=C4)C(=O)N(C)C)O + CS(=O)(=O)CCNCc1ccc(-c2ccc3ncnc(Nc4ccc(OCc5cccc(F)c5)c(Cl)c4)c3c2)o1 [Lapatinib] (partner 2 µM)
Method in brief: as §1

[4] = compound: CN(C)CC1=CC(=CC=C1)N=C(C2=CC=CC=C2)C3=C(NC4=C3C=CC(=C4)C(=O)N(C)C)O + CCNC(=O)c1noc(-c2cc(C(C)C)c(O)cc2O)c1-c1ccc(CN2CCOCC2)cc1 [Luminespib] (partner 0.01 µM)
Method in brief: as §1

Cell Line	relative viability ([1]; first compound 0.08 µM)	relative viability ([1]; first compound 0.253 µM)	relative viability ([1]; first compound 0.8 µM)	relative viability ([1]; first compound 2.53 µM)	relative viability ([1]; first compound 8 µM)	relative viability ([2]; first compound 0.08 µM)	relative viability ([2]; first compound 0.253 µM)	relative viability ([2]; first compound 0.8 µM)	relative viability ([2]; first compound 2.53 µM)	relative viability ([2]; first compound 8 µM)	relative viability ([3]; first compound 0.08 µM)	relative viability ([3]; first compound 0.253 µM)	relative viability ([3]; first compound 0.8 µM)	relative viability ([3]; first compound 2.53 µM)	relative viability ([3]; first compound 8 µM)	relative viability ([4]; first compound 0.08 µM)	relative viability ([4]; first compound 0.253 µM)	relative viability ([4]; first compound 0.8 µM)	relative viability ([4]; first compound 2.53 µM)	relative viability ([4]; first compound 8 µM)
NCI-H2228	0.638	0.736	0.615	0.492	0.419	0.66	0.541	1.12	0.63	0.582	1.06	1.13	1.19	0.704	0.846	0.134	0.152	0.142	0.164	0.137
NCI-H2347	0.444	0.525	0.407	0.471	0.703	1.04	0.995	0.994	1.03	1.05	1.01	0.899	0.975	0.953	0.963	0.355	0.444	0.34	0.383	0.298
PC-14	0.913	0.85	0.968	0.734	0.563	0.98	0.954	0.96	0.874	0.998	0.33	0.264	0.38	0.313	0.311	0.206	0.131	0.146	0.145	0.102
NCI-H727	0.72	0.581	0.59	0.573	0.537	0.253	0.349	0.197	0.281	0.24	0.7	0.855	0.834	0.734	0.665	0.245	0.377	0.296	0.543	0.354
NCI-H647	0.711	0.772	0.754	0.461	0.539	1.29	1.11	0.858	1.12	0.795	1.15	1.03	0.944	0.957	0.603	0.103	0.133	0.227	0.199	0.184
EKVX	0.718	0.726	0.781	0.764	0.739	1.1	0.925	1.05	1.06	1.07	0.196	0.294	0.205	0.224	0.23	0.864	0.921	1	0.927	1.06
NCI-H838	0.347	0.469	0.513	0.417	0.354	1.05	0.96	0.981	0.88	0.826	0.972	1.01	1.08	0.895	0.685	0.386	0.355	0.254	0.331	0.341
NCI-H1437	1.02	0.917	0.983	0.877	0.942	0.948	1.07	1.05	1.01	1.03	0.839	0.772	0.978	0.775	0.835	1.12	1.14	1.2	1.06	1.2
ChaGo-K-1	0.584	0.582	0.609	0.588	0.527											0.688	0.612	0.668	0.529	0.598
NCI-H1650	0.756	0.686	0.612	0.714	0.524						0.688	0.828	0.86	0.736	0.647	0.194	0.202	0.227	0.199	0.186
NCI-H2170	0.739	0.75	0.465	0.69	0.676						0.278	0.277	0.286	0.273	0.271	0.791	0.566	0.53	0.667	0.549
NCI-H1648	0.266		0.308	0.277	0.252															
Calu-6						0.951	0.877	0.989	0.911	0.885	1.13	1.01	1.02	1.07	1.03					
SW 900	0.677	0.652	0.663	0.664	0.537											0.175	0.167	0.188	0.18	0.202
LCLC-103H	0.452	0.538	0.493	0.493	0.452	1.15	1.11	0.941	0.904	0.908						0.948	0.959	1.07	0.926	0.863
HCC-78	0.394	0.406	0.508	0.406	0.377	0.62	0.452	0.475	0.535	0.511	0.785	1.48	0.722	0.707	0.741					
IA-LM						0.666	0.645	0.773	0.767	0.544	0.781	0.916	0.872	0.948	1.07					
NCI-H522	0.68	0.693	0.694	0.651	0.643											1.16	1.13	1.12	1.22	0.819
HCC-366	0.999	1.1	0.971	0.878	0.414	0.737	0.602	0.657	0.473	0.354	0.949	0.939	1.07	1.01	1.08					
NCI-H1703						0.625	0.781	0.701	0.61	0.192	1.12	1.22	1.48	0.762	0.296					
NCI-H441	0.522	0.703	0.74	0.568	0.39	0.593	0.539	0.507	0.496	0.418						0.303	0.304	0.364	0.381	0.354

Reference: the supplement of paper PMC10307832
